Assay results taken from patent US6706663B2, “Herbicidal 3-heterocyclic substituted benzisothiazole and benzisoxazole compounds” (Wyeth, priority 2000, dated 2004).

Experiments:
[1] = tested on: AMBEL (Ambrosia artemisifolia); assay: Preemergence herbicidal evaluation; assay type: in vivo, L.; settings: preemergence, rated 4-5 weeks after treatment
Procedure, shortened: (§1)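 Each species was sown separately in potting soil over roughly one inch of soil, and the surface sprayed with compound dissolved in aqueous acetone. Assessment used a 0–9 visual scale against a control after four to five weeks.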

[2] = tested on: CASOB (Cassia obtusifolia); assay: Preemergence herbicidal evaluation; assay type: in vivo, L.; settings: preemergence, rated 4-5 weeks after treatment
Procedure, shortened: as §1

[3] = tested on: CHEAL (Chenopodium album); assay: Preemergence herbicidal evaluation; assay type: in vivo, L.; settings: preemergence, rated 4-5 weeks after treatment
Procedure, shortened: as §1

[4] = tested on: GALAP (Galium aparine); assay: Postemergence herbicidal evaluation; assay type: in vivo
Procedure, shortened: (§2)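 Seedlings grown for about two weeks were sprayed postemergence and then kept under standard greenhouse care. Injury was rated visually 4–5 weeks after treatment on a 0–9 scale against untreated controls, and ratings from repeat tests were averaged.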

[5] = tested on: ABUTH (Abutilon theophrasti); assay: Postemergence herbicidal evaluation; assay type: in vivo, Medic.
Procedure, shortened: as §2

[6] = tested on: GLXMAW (Soybean, Williams); assay: Postemergence herbicidal evaluation; assay type: in vivo, Glycine max, (L.) Merr. cv Williams
Procedure, shortened: as §2

[7] = tested on: ECHCG (Echinochloa crus-galli); assay: Postemergence herbicidal evaluation; assay type: in vivo, (L.) Beau
Procedure, shortened: as §2

[8] = tested on: SAGPY (Sagittaria pygmaea); assay: Flooded paddy, preemergence weed control; assay type: in vivo, L.; settings: rated 3-4 weeks after treatment, 0-9 rating scale
Procedure, shortened: (§3)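 Seeds or propagules were planted in the top 0.5 cm of silt loam soil and kept flooded 1.5–3 cm above the surface throughout, then held in the greenhouse. Injury was rated visually on a 0–9 scale against untreated controls, covering stand, vigor, malformation, size and chlorosis.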

[9] = tested on: TRZAWR (Wheat, Winter, cv Riband); assay: Preemergence herbicidal evaluation; assay type: in vivo, Triticum aestivum; settings: preemergence, rated 4-5 weeks after treatment
Procedure, shortened: as §1

[10] = tested on: CYPSE (Cyperus serotinus); assay: Flooded paddy, preemergence weed control; assay type: in vivo, Rottb.; settings: rated 3-4 weeks after treatment, 0-9 rating scale
Procedure, shortened: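 Herbicidal effect was scored visually on a 0–9 scale against an untreated control 3–4 weeks after treatment. Compounds were applied preemergence as 50/50 v/v aqueous/acetone mixtures into flood water (1.5–3 cm deep over silt loam), at roughly 0.0080 to 0.1250 kg/ha active ingredient.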

[11] = tested on: ECHORC (Echinochloa oryzoides); assay: Flooded paddy, preemergence weed control; assay type: in vivo, Echinochloa oryzoides (Ard.) Fritsch.; settings: rated 3-4 weeks after treatment, 0-9 rating scale
Procedure, shortened: as §3

[12] = tested on: ZEAMX (Corn, Field); assay: Postemergence herbicidal evaluation; assay type: in vivo, Zea mays, L.
Procedure, shortened: as §2

[13] = tested on: IPOHE (Ipomoea hederacea); assay: Preemergence herbicidal evaluation; assay type: in vivo, (L.) Jacq.; settings: preemergence, rated 4-5 weeks after treatment
[14] = tested on: IPOHE (Ipomoea hederacea); assay: Postemergence herbicidal evaluation; assay type: in vivo, (L.) Jacq.
Procedure, shortened: as §2

[15] = tested on: GLXMAW (Soybean, Williams); assay: Preemergence herbicidal evaluation; assay type: in vivo, Glycine max, (L.) Merr. cv Williams; settings: preemergence, rated 4-5 weeks after treatment
[16] = tested on: CYPIR (Cyperus iria); assay: Flooded paddy, preemergence weed control; assay type: in vivo; settings: rated 3-4 weeks after treatment, 0-9 rating scale
Procedure, shortened: as §3

[17] = tested on: ORYSAT (Rice, Tebonnet); assay: Preemergence herbicidal evaluation; assay type: in vivo, Oryza sativa, (L.) Tebonnet; settings: preemergence, rated 4-5 weeks after treatment
[18] = tested on: AMBEL (Ambrosia artemisifolia); assay: Postemergence herbicidal evaluation; assay type: in vivo, L.
Procedure, shortened: as §2

[19] = tested on: CASOB (Cassia obtusifolia); assay: Postemergence herbicidal evaluation; assay type: in vivo, L.
Procedure, shortened: as §2

[20] = tested on: CHEAL (Chenopodium album); assay: Postemergence herbicidal evaluation; assay type: in vivo, L.
Procedure, shortened: as §2

[21] = tested on: GALAP (Galium aparine); assay: Preemergence herbicidal evaluation; assay type: in vivo; settings: preemergence, rated 4-5 weeks after treatment
Procedure, shortened: as §1

[22] = tested on: ZEAMX (Corn, Field); assay: Preemergence herbicidal evaluation; assay type: in vivo, Zea mays, L.; settings: preemergence, rated 4-5 weeks after treatment

CCOC(=O)C1CS[C@H](c2nsc3ccc(-n4c(=O)cc(C(F)(F)F)n(C)c4=O)cc23)N1 (stereo partly drawn) [Compound 2, ethyl (R)-2-[5-[3,6-dihydro-3-methyl-2,6-dioxo-4-(trifluoromethyl)-1(2H)-pyrimidinyl]-1,2-benzisothiazol-3-yl]-4-thiazolidinecarboxylate]
AMBEL preemergence herbicidal rating ([1]; Rate 0.0620 kg/ha): 7.0 | AMBEL preemergence herbicidal rating ([1]; Rate 0.1250 kg/ha): 8.0 | AMBEL preemergence herbicidal rating ([1]; Rate 0.2500 kg/ha): 9.0 | CASOB preemergence herbicidal rating ([2]; Rate 0.0620 kg/ha): 5.0 | CASOB preemergence herbicidal rating ([2]; Rate 0.1250 kg/ha): 7.5 | CASOB preemergence herbicidal rating ([2]; Rate 0.2500 kg/ha): 7.0 | CHEAL preemergence herbicidal rating ([3]; Rate 0.0620 kg/ha): 9.0 | CHEAL preemergence herbicidal rating ([3]; Rate 0.1250 kg/ha): 9.0 | CHEAL preemergence herbicidal rating ([3]; Rate 0.2500 kg/ha): 9.0 | Postemergence herbicidal rating, GALAP ([4]; rate 0.0320 kg/ha): 5.0 | Postemergence herbicidal rating, GALAP ([4]; rate 0.0620 kg/ha): 6.0 | Postemergence herbicidal rating, ABUTH ([5]; rate 0.0320 kg/ha): 9.0 | Postemergence herbicidal rating, ABUTH ([5]; rate 0.0620 kg/ha): 9.0 | Postemergence herbicidal rating, GLXMAW ([6]; rate 0.0320 kg/ha): 7.0 | Postemergence herbicidal rating, GLXMAW ([6]; rate 0.0620 kg/ha): 7.5 | Postemergence herbicidal rating, ECHCG ([7]; rate 0.0320 kg/ha): 3.0 | Postemergence herbicidal rating, ECHCG ([7]; rate 0.0620 kg/ha): 4.0 | herbicidal rating, SAGPY ([8]; rate 0.0320 kg/ha): 0.0 | herbicidal rating, SAGPY ([8]; rate 0.1250 kg/ha): 0.0 | TRZAWR preemergence herbicidal rating ([9]; Rate 0.0620 kg/ha): 2.0 | TRZAWR preemergence herbicidal rating ([9]; Rate 0.1250 kg/ha): 5.0 | TRZAWR preemergence herbicidal rating ([9]; Rate 0.2500 kg/ha): 7.0 | herbicidal rating, CYPSE ([10]; rate 0.0320 kg/ha): 0.0 | herbicidal rating, CYPSE ([10]; rate 0.1250 kg/ha): 0.0 | herbicidal rating, ECHORC ([11]; rate 0.0320 kg/ha): 0.0 | herbicidal rating, ECHORC ([11]; rate 0.1250 kg/ha): 2.0 | Postemergence herbicidal rating, ZEAMX ([12]; rate 0.0320 kg/ha): 7.0 | Postemergence herbicidal rating, ZEAMX ([12]; rate 0.0620 kg/ha): 7.0 | IPOHE preemergence herbicidal rating ([13]; Rate 0.0620 kg/ha): 9.0 | IPOHE preemergence herbicidal rating ([13]; Rate 0.1250 kg/ha): 9.0 | IPOHE preemergence herbicidal rating ([13]; Rate 0.2500 kg/ha): 9.0 | Postemergence herbicidal rating, IPOHE ([14]; rate 0.0320 kg/ha): 9.0 | Postemergence herbicidal rating, IPOHE ([14]; rate 0.0620 kg/ha): 9.0 | GLXMAW preemergence herbicidal rating ([15]; Rate 0.0620 kg/ha): 5.5 | GLXMAW preemergence herbicidal rating ([15]; Rate 0.1250 kg/ha): 8.0 | GLXMAW preemergence herbicidal rating ([15]; Rate 0.2500 kg/ha): 8.0 | herbicidal rating, CYPIR ([16]; rate 0.0320 kg/ha): 0.0 | herbicidal rating, CYPIR ([16]; rate 0.1250 kg/ha): 2.0 | ORYSAT preemergence herbicidal rating ([17]; Rate 0.0620 kg/ha): 3.0 | ORYSAT preemergence herbicidal rating ([17]; Rate 0.1250 kg/ha): 6.0 | ORYSAT preemergence herbicidal rating ([17]; Rate 0.2500 kg/ha): 7.0 | Postemergence herbicidal rating, AMBEL ([18]; rate 0.0320 kg/ha): 7.0 | Postemergence herbicidal rating, AMBEL ([18]; rate 0.0620 kg/ha): 9.0 | Postemergence herbicidal rating, CASOB ([19]; rate 0.0320 kg/ha): 4.0 | Postemergence herbicidal rating, CASOB ([19]; rate 0.0620 kg/ha): 4.0 | Postemergence herbicidal rating, CHEAL ([20]; rate 0.0320 kg/ha): 9.0 | Postemergence herbicidal rating, CHEAL ([20]; rate 0.0620 kg/ha): 9.0 | GALAP preemergence herbicidal rating ([21]; Rate 0.0620 kg/ha): 5.0 | GALAP preemergence herbicidal rating ([21]; Rate 0.1250 kg/ha): 9.0 | GALAP preemergence herbicidal rating ([21]; Rate 0.2500 kg/ha): 9.0 | ZEAMX preemergence herbicidal rating ([22]; Rate 0.0620 kg/ha): 3.5 | ZEAMX preemergence herbicidal rating ([22]; Rate 0.1250 kg/ha): 6.5 | ZEAMX preemergence herbicidal rating ([22]; Rate 0.2500 kg/ha): 7.5
